Experimental data: US20240287054A1, “COMPOUNDS THAT BIND NON-CANONICAL G-QUADRUPLEX STRUCTURES AND METHODS OF MAKING AND USING THE SAME” (The U.S.A., as Represented by the Secretary, Department of …, priority 2021, published 2024)

Columns and labels:
dsDNA = experiment: SPR binding to dsDNA; details: up to 5 μM compound injection
MYCN G4 DNA = experiment: Fluorescence quenching of position-labeled MYCN G4 (2-AP at A11/A18/A24, 5′/3′-Cy5); assay type: binding, human
Protocol: Fluorescence intensity assay. In this disclosure, fluorescence intensity assay (FIA) was used for both validation of hit binding at a single dose and binding affinity determination. For validating hit compounds from SMM screening, 100 μM solution of each compound was prepared in triplicate in a 96 well-plate (Costar, black side clear bottom), resulting in 5% DMSO concentration. 5′Cy5-labeled MYCN G4 DNA was annealed as described above, then added into the well plate resulting in a final concentration of 100 nM. The plate was incubated shaking for 30 min, followed by centrifuging at 500 rpm for 2 minutes. The fluorescence intensity was then measured on a Synergy Mx microplate reader (BioTek) at Ex 649 nm/Em 670 nm. TMPyP4/DMSO were used as positive and negative controls, respectively. In certain examples, compounds were considered binders when a change of >10% change in fluorescence intensity was observed compared to that of negative control (DMSO solution). For binding affinity measurement, small molecule solutions were prepared as serial dilutions in DMSO. Then a final test plate was prepared by adding 5 μL small molecule solutions and 10 μL annealed DNA samples into 85 μL buffer solutions, resulting in the final small molecule concentrations from 0 to 250 μM (5% final DMSO concentration). The fluorescence intensities were normalized, and the binding affinity was calculated by fitting the curve using one-site total model in GraphPad Prism 8.3.1 software. The fluorescence titration using 3′-labeled oligonucleotides was also performed the same way.
2-Aminopurine (2-AP) fluorescence titration. Fluorescence titrations based on 2-aminopurine labeling were performed using the protocol reported previously. Briefly, MYCN G4 oligonucleotide with a 2-AP substitution at either A11 or A18 position was annealed by heating the sample to 95° C. for 5 min and cooling down to RT slowly. The oligonucleotide with folded structure was diluted to 10 μM in Tris buffer (10 mM Tris, pH7.0, 100 mM KCl, 0.005% Tween 20) and prepared in a black 96-well plate (Costar) in triplicate as designed. Small molecules were diluted in DMSO to obtain a series of solutions with concentrations ranging from 0.1 to 5 mM, and then diluted by 20 times added into the plate (5% DMSO final concentration). The final concentration of 2-AP DNA was 1 μM in the well plate. To obtain the background fluorescence, small molecule solutions without DNA were also prepared in the same plate. After incubation for 30 min at RT, the plate was briefly centrifuged and scanned in Synergy Mx microplate reader (BioTek) with Ex 310 nm/Em 365 nm. Fluorescence signals were calculated by averaging the intensities in triplicate wells after subtracting the references. Finally, the binding signals were normalized and the KD value was determined by fitting the curve using a nonlinear sigmoidal dose-response model with a variable slope in GraphPad Prism 8.3.1 software.
To further understand the binding details between compound MY-1 and MYCN G4, a series of FIA studies were designed and performed. […] After incubating 100 μM MY-1 with labeled DNA samples, fluorescence intensities were measured and compared to DMSO controls. Fluorescence of the A11 2-AP DNA sample was quenched by almost 100%, while the quenching percentages were 80% and 70% for A18 and A24 2-AP DNAs, respectively (FIG. 24B, FIGS. 25A-25C). […]

NBEB cells = experiment: Incucyte live cell imaging of cell confluence; assay type: cell-based; details: 4-day measurement after single treatment, 0-45 μM
Protocol: Cell lines and cell culture. The neuroblastoma cell line NBEB (Single Copy MYCN) cells were used to evaluate the efficacy of the MYCN/MYCNOs G-quadruplex binding molecules. NBEB came from stocks in Pediatric Oncology Branch, National Cancer Institute, National Institutes of Health, Bethesda, MD and have been […]. Cells were cultured in RPMI-1640, supplemented with 10% FBS (Atlanta Biologicals, Atlanta), 2 mM glutamine (Life Technologies, New York), and antibiotics (penicillin 100 μg/mL, streptomycin 100 μg/mL; Life Technologies, New York) at 37° C. in a 5% CO2 incubator.
To examine the effects of G4-binding compounds on NBEB cells, live-cell imaging was performed using an Incucyte interface (described below). […] To examine the time-dependent decrease in MYCNOs expression, cells were treated with 22.5 μM and 45 μM MY-8 and analyzed at various times (0, 4, 24, 48, 72 and 96 h). To validate cell viability, a Trypan Blue exclusion test was performed following treatment at 48 h and 96 h post treatment and the proportion of live versus dead cells was calculated using a hemocytometer.
Incucyte live cell imaging system. […] Incucyte measured cell confluence from pre-defined processing definitions for NBEB NB cells. […]

MYCN mRNA = experiment: qRT-PCR of MYCN mRNA in NBEB cells; assay type: cell-based; details: NBEB cells, 24, 36, 48 h, higher concentrations
Protocol: To examine the effects of G4-binding compounds on NBEB cells, live-cell imaging was performed using an Incucyte interface (described below). NBEB (5K/well), cells were seeded into 96-well plates in triplicate, treated with compound MY-8 at various concentrations (0-45 μM), and cultured until control wells reached confluence. For RT-qPCR and western blotting, NBEB (300K) cells were treated with MY-8 in 6-well dish for 48 h. To examine the time-dependent decrease in MYCNOs expression, cells were treated with 22.5 μM and 45 μM MY-8 and analyzed at various times (0, 4, 24, 48, 72 and 96 h). To validate cell viability, a Trypan Blue exclusion test was performed following treatment at 48 h and 96 h post treatment and the proportion of live versus dead cells was calculated using a hemocytometer.
Quantitative RT-PCR. Total RNA was extracted from NBEB cells according to manufacturer's instructions (RNeasy Plus Mini Extraction kit (#74134) (Qiagen, CA). RNA (1 μg) was reverse transcribed into cDNA using the cDNA synthesis High-Capacity RNA-to-cDNA™ Kit. Quantitative PCR was performed using Fast SYBR™ Green Master Mix according to the manufacturer's protocol. Beta-actin was used as a housekeeping gene. Relative expression was calculated using the 2(−ΔCt) method. The qPCR primer sequences can be found in supplementary materials.

For `COc1ccc(-c2noc(-c3ccc(NCCCNc4c5ccc(Cl)cc5nc5ccc(OC)cc45)nn3)n2)cc1` [B33, N^1-(6-chloro-2-methoxyacridin-9-yl)-N^3-(6-(3-(4-methoxyphenyl)-1,2,4-oxadiazol-5-yl)pyridazin-3-yl)propane-1,3-diamine], which “binding to dsDNA on SPR” value (dsDNA) is on record?
The value was “did not show any binding to dsDNA”.

How did the “fluorescence quenching, 3′-Cy5 labeled oligo” value (MYCN G4 DNA; 100 μM MY-1) turn out when `COc1ccc(-c2noc(-c3ccc(NCCCN4CCCC4)nn3)n2)cc1` [MY-1, 6-(3-(4-methoxyphenyl)-1,2,4-oxadiazol-5-yl)-N-(3-(pyrrolidin-1-yl)propyl)pyridazin-3-amine] was run?
Its value is 0%.

What about the “fluorescence quenching, 5′-Cy5 labeled oligo” value (MYCN G4 DNA; 100 μM MY-1) of the same compound?
The value was 15%.

And the “fluorescence quenching, A11 2-AP DNA” value (MYCN G4 DNA; 100 μM MY-1 vs DMSO control)?
Its value is roughly 100%.

And the “fluorescence quenching, A18 2-AP DNA” value (MYCN G4 DNA; 100 μM MY-1 vs DMSO control)?
Its value is 80%.

What about the “fluorescence quenching, A24 2-AP DNA” value (MYCN G4 DNA; 100 μM MY-1 vs DMSO control) of the same compound?
The value was 70%.

With `COc1ccc(-c2noc(-c3ccc(NCCCN4CCCCCC4)nn3)n2)cc1` [MY-8, N-(3-(azepan-1-yl)propyl)-6-(3-(4-methoxyphenyl)-1,2,4-oxadiazol-5-yl)pyridazin-3-amine] as the compound, how does the “NBEB cell growth (cell confluence)” value (NBEB cells) read?
The value was “significant inhibition of NBEB cell growth”.

What about the “MYCN mRNA level” value (MYCN mRNA) of the same compound?
The value was “clear decreases of mRNA level”.
